# Reference: BindingDB's records for doi:10.1016/s0028-3908(05)80009-7 (Universit&Eacute, 1994)
# Where a SMILES comes first, the peptide text is derived from it. [ ]: non-standard residue; d: D form. ξ: configuration not given here. Ile(3ξ) = CCC(C)[C@H](N)C(=O)O
# Target: T1, Pituitary adenylate cyclase-activating polypeptide (Rattus norvegicus, UniProt P13589)
# T1 sequence (P13589 whole entry): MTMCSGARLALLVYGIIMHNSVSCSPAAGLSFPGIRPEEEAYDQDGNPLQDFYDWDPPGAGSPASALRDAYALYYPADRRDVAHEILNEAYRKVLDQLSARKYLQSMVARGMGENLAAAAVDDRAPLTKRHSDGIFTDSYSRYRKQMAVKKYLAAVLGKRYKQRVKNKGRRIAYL
row,Ki,Compound
1,60 nM,CCC(C)[C@H](NC(=O)CNC(=O)[C@H](CC(=O)O)NC(=O)[C@H](Cc1ccccc1)NC(=O)[C@@H](N)Cc1cnc[nH]1)C(=O)N[C@@H](Cc1ccccc1)C(=O)N[C@H](C(=O)N[C@@H](CC(=O)O)C(=O)N[C@@H](CO)C(=O)N[C@@H](Cc1ccc(O)cc1)C(=O)N[C@@H](CO)C(=O)N[C@@H](CCCN=C(N)N)C(=O)N[C@@H](Cc1ccc(O)cc1)C(=O)N[C@@H](CCCN=C(N)N)C(=O)N[C@@H](CCCCN)C(=O)N[C@@H](CCC(N)=O)C(=O)N[C@@H](CCSC)C(=O)N[C@@H](C)C(=O)N[C@H](C(=O)N[C@@H](CCCCN)C(=O)N[C@@H](CCCCN)C(=O)N[C@@H](Cc1ccc(O)cc1)C(=O)N[C@@H](CC(C)C)C(=O)N[C@@H](C)C(=O)N[C@@H](C)C(=O)N[C@H](C(=O)N[C@@H](CC(C)C)C(N)=O)C(C)C)C(C)C)[C@@H](C)O (some centres not stated) [[Phe2]PACAP(1-27)]
2,2 nM,CCC(C)[C@H](NC(=O)CNC(=O)[C@H](CC(=O)O)NC(=O)[C@H](Cc1ccccc1)NC(=O)[C@@H](N)Cc1cnc[nH]1)C(=O)N[C@@H](Cc1ccccc1)C(=O)N[C@H](C(=O)N[C@@H](CC(=O)O)C(=O)N[C@@H](CO)C(=O)N[C@@H](Cc1ccc(O)cc1)C(=O)N[C@@H](CO)C(=O)N[C@@H](CCCN=C(N)N)C(=O)N[C@@H](Cc1ccc(O)cc1)C(=O)N[C@@H](CCCN=C(N)N)C(=O)N[C@@H](CCCCN)C(=O)N[C@@H](CCC(N)=O)C(=O)N[C@@H](CCSC)C(=O)N[C@@H](C)C(=O)N[C@H](C(=O)N[C@@H](CCCCN)C(=O)N[C@@H](CCCCN)C(=O)N[C@@H](Cc1ccc(O)cc1)C(=O)N[C@@H](CC(C)C)C(=O)N[C@@H](C)C(=O)N[C@@H](C)C(=O)N[C@H](C(=O)N[C@@H](CC(C)C)C(=O)NCC(=O)N[C@@H](CCCCN)C(=O)N[C@@H](CCCN=C(N)N)C(=O)N[C@@H](Cc1ccc(O)cc1)C(=O)N[C@@H](CCCCN)C(=O)N[C@@H](CCC(N)=O)C(=O)N[C@@H](CCCN=C(N)N)C(=O)N[C@H](C(=O)N[C@@H](CCCCN)C(=O)N[C@@H](CC(N)=O)C(=O)N[C@@H](CCCCN)C(N)=O)C(C)C)C(C)C)C(C)C)[C@@H](C)O (some centres not stated) [[Phe2]PACAP(1-38)] (H-HFDG[Ile(3ξ)]FTDSYSRYRKQMAVKKYLAAVLGKRYKQRVKNK-NH2)
3,30 nM,H-DSYSRYRKQMAVKKYLAAVLGKRYKQRVKNK-NH2 [PACAP(8-38)]
4,1000 nM,H-FTDSYSRYRKQMAVKKYLAAVL-NH2 [PACAP(5-27)]
5,300 nM,H-FTDSYSRYRKQMAVKKYLAAVLGKRYKQRV-NH2 [PACAP(6-35)]
6,6000 nM,H-SRYRKQMAVKKYLAAVL-NH2 [PACAP(11-27)]
7,100 nM,H-SRYRKQMAVKKYLAAVLGKRYKQRVKNK-NH2 [PACAP(11-38)]
8,2000 nM,H-SYSRYRKQMAVKKYLAAVL-NH2 [PACAP(9-27)]
9,30 nM,H-SYSRYRKQMAVKKYLAAVLGKRYKQRVKNK-NH2 [PACAP(9-38)]
10,3000 nM,H-TDSYSRYRKQMAVKKYLAAVL-NH2 [PACAP(6-27)]
11,10 nM,H-TDSYSRYRKQMAVKKYLAAVLGKRYKQRVKNK-NH2 [PACAP(7-38)]
12,90 nM,H-YSRYRKQMAVKKYLAAVLGKRYKQRVKNK-NH2 [PACAP(10-38)]
